In patent publication US7375124B2, “Use of α-phenylthiocarboxylic and α-phenyloxycarboxylic acids with serum-glucose-lowering and serum-lipid-lowering activity” (Sigma-Tau Industrie Farmaceutiche Riunite S.p.A., priority 2002, dated 2008):

| Compound | melting point [°C] |
| --- | --- |
| COC(=O)C(C)(C)Sc1ccc(OCCn2c3ccccc3c3ccccc32)cc1 [Example 7, methyl 2-[4-(2-(carbazol-9-yl)ethoxy)phenylthio]isobutyrate] | 72 to 74 |
| CC(C)(Sc1ccc(OCCc2ccc(Cl)cc2)cc1)C(=O)O [Example 12, 2-[4-[2-(4-chlorophenyl)ethoxy]phenylthio]-2-methylpropanoic acid] | 87 to 88 |
| CC(C)(Sc1ccc(OCCc2ccc3ccccc3c2)cc1)C(=O)O [Example 19, 2-[4-[2-(2-naphthyl)ethoxy]phenylthio]-2-methylpropanoic acid] | 103 to 104 |
| COC(=O)C(C)(C)Sc1cccc(OCCn2c3ccccc3c3ccccc32)c1 [Example 6, methyl 2-[3-(2-(carbazol-9-yl)ethoxy)phenylthio]isobutyrate] | 101 to 103 |
| CC(C)(Sc1cccc(OCc2ccc(-c3ccc([N+](=O)[O-])cc3)o2)c1)C(=O)O [Example 25, 2-methyl-2-[3-[5-(4-nitrophenyl)furfuryloxy]phenylthio]propanoic acid] | 137 to 138 |
| COC(=O)C(C)(C)Sc1ccc(OCCc2ccc(Cl)cc2Cl)cc1 [Example 5, methyl 2-[4-(2-(2,4-dichlorophenyl)ethoxy)phenylthio]isobutyrate] | 73 to 74 |
| COC(=O)C(C)(C)Sc1cccc(OCc2ccc(-c3ccc([N+](=O)[O-])cc3)o2)c1 [Example 22, methyl 2-[3-[5-(4-nitrophenyl)furfuryloxy]phenylthio]isobutyrate] | 81 to 82 |
